Measurements: PubChem BioAssay AID1963875 (Molecular Pharmacology Branch, DTP, NCI, 2024)

System: KRAS-mutant PDC complex spheroid viability
Assay: Anticancer human tumor 186277-243-T-J2-PDC patient-derived colon adenocarcinoma cell line growth inhibition [KRAS2]
Conditions: for IC50: curve of first compound; for viability, T/C: stronger effect = lower value
How it was run: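 Combination screen of spheroid viability in tumor-cell co-cultures with endothelial (HUVEC) and mesenchymal stem cell stroma. Each agent was tested in half-log dilutions, topping at clinical Cmax or at 10 microM without a known Cmax.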

[1] = second compound 0.1 µM, first compound 0.0316 µM
[2] = second compound 0.1 µM, first compound 0.1 µM
[3] = second compound 0.1 µM, first compound 0.316 µM
[4] = second compound 0.1 µM, first compound 1 µM
[5] = second compound 0.1 µM, first compound 3.16 µM
[6] = second compound 0.1 µM, first compound 10 µM
[7] = second compound 0.316 µM, first compound 0.0316 µM
[8] = second compound 0.316 µM, first compound 0.1 µM
[9] = second compound 0.316 µM, first compound 0.316 µM
[10] = second compound 0.316 µM, first compound 1 µM
[11] = second compound 0.316 µM, first compound 3.16 µM
[12] = second compound 0.316 µM, first compound 10 µM
[13] = second compound 1 µM, first compound 0.0316 µM
[14] = second compound 1 µM, first compound 0.1 µM
[15] = second compound 1 µM, first compound 0.316 µM
[16] = second compound 1 µM, first compound 1 µM
[17] = second compound 1 µM, first compound 3.16 µM
[18] = second compound 1 µM, first compound 10 µM
[19] = second compound 3.16 µM, first compound 0.0316 µM
[20] = second compound 3.16 µM, first compound 0.1 µM
[21] = second compound 3.16 µM, first compound 0.316 µM
[22] = second compound 3.16 µM, first compound 1 µM
[23] = second compound 3.16 µM, first compound 3.16 µM
[24] = second compound 3.16 µM, first compound 10 µM
[25] = second compound 10 µM, first compound 0.0316 µM
[26] = second compound 10 µM, first compound 0.1 µM
[27] = second compound 10 µM, first compound 0.316 µM
[28] = second compound 10 µM, first compound 1 µM
[29] = second compound 10 µM, first compound 3.16 µM
[30] = second compound 10 µM, first compound 10 µM
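Throughout, for viability, T/C: viability read after seven days of compound exposure; 100% = DMSO vehicle-treated spheroids so lower means less viable.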

SMILES	IC50 (second compound 0.1 µM)	IC50 (second compound 0.316 µM)	IC50 (second compound 1 µM)	IC50 (second compound 3.16 µM)	IC50 (second compound 10 µM)	viability, T/C [1]	viability, T/C [2]	viability, T/C [3]	viability, T/C [4]	viability, T/C [5]	viability, T/C [7]	viability, T/C [8]	viability, T/C [9]	viability, T/C [10]	viability, T/C [11]	viability, T/C [13]	viability, T/C [14]	viability, T/C [15]	viability, T/C [16]	viability, T/C [17]	further results
COC(=O)c1ccc2c(C(=Nc3ccc(N(C)C(=O)CN4CCN(C)CC4)cc3)c3ccccc3)c(O)[nH]c2c1 + C=CC(=O)N1CCN(c2nc(=O)n(-c3c(C)ccnc3C(C)C)c3nc(-c4c(O)cccc4F)c(F)cc23)C(C)C1	2130 nM	882 nM	1570 nM	462 nM	204 nM	95.6%	93%	94.4%	104%	25.4%	87.5%	96.1%	97.7%	44.6%	19.7%	96%	92.9%	102%	73%	13.7%	viability, T/C [6]: 12.7%; viability, T/C [12]: 6.92%; viability, T/C [18]: 3.67%; viability, T/C [19]: 96.1%; viability, T/C [20]: 96.8%; viability, T/C [21]: 53.5%; viability, T/C [22]: 33.5%; viability, T/C [23]: 6.72%; viability, T/C [24]: 3.16%; viability, T/C [25]: 56.1%; viability, T/C [26]: 63.4%; viability, T/C [27]: 43.5%; viability, T/C [28]: 12.5%; viability, T/C [29]: 1.11%; viability, T/C [30]: 0.14%
COc1cc2nccc(Oc3ccc(NC(=O)C4(C(=O)Nc5ccc(F)cc5)CC4)cc3)c2cc1OC + CC1OCC2(CCN(c3cnc(Sc4ccnc(N)c4Cl)c(N)n3)CC2)C1N	1980 nM	2030 nM	1710 nM	821 nM	284 nM	106%	111%	105%	103%	13.7%	115%	98.8%	109%	107%	14.6%	104%	112%	104%	85.2%	9.37%	viability, T/C [6]: 8.67%; viability, T/C [12]: 9.03%; viability, T/C [18]: 6.62%; viability, T/C [19]: 94%; viability, T/C [20]: 92.8%; viability, T/C [21]: 83.7%; viability, T/C [22]: 43.6%; viability, T/C [23]: 5.99%; viability, T/C [24]: 4.64%; viability, T/C [25]: 63.5%; viability, T/C [26]: 60.7%; viability, T/C [27]: 48.5%; viability, T/C [28]: 21.8%; viability, T/C [29]: 3.73%; viability, T/C [30]: 3.26%
CC1COCCN1c1cc(-c2ccnn2C)c2ccnc(-c3ccn[nH]3)c2n1 (stereo not given) + COc1cc2nc(C)nc(NC(C)c3cc(N)cc(C(F)(F)F)c3)c2cc1OC1CCOC1	< 10 nM	21.2 nM	19.9 nM	19.9 nM	18.9 nM	4.38%	3.41%	2.71%	2.04%	1.41%	24.3%	3.67%	2.88%	2.23%	3.71%	17.2%	4.4%	3.51%	3.19%	3.55%	viability, T/C (second compound 0.1 µM, first compound 0.01 µM): 5.03%; viability, T/C (second compound 0.316 µM, first compound 0.01 µM): 98.5%; viability, T/C (second compound 1 µM, first compound 0.01 µM): 98.9%; viability, T/C (second compound 3.16 µM, first compound 0.01 µM): 99.5%; viability, T/C [19]: 16.4%; viability, T/C [20]: 3.55%; viability, T/C [21]: 2.87%; viability, T/C [22]: 1.93%; viability, T/C [23]: 3.19%; viability, T/C (second compound 10 µM, first compound 0.01 µM): 103%; viability, T/C [25]: 7.22%; viability, T/C [26]: 3.43%; viability, T/C [27]: 2.48%; viability, T/C [28]: 2.25%; viability, T/C [29]: 2.72%
